Tests used:
[1] = target: HDAC3 (Homo sapiens, UniProt O15379); experiment: HDAC enzyme-based fluorogenic assay, HDAC3; type: biochemical
[2] = target: HDAC1 (Homo sapiens, UniProt Q13547); experiment: HDAC enzyme-based fluorogenic assay, HDAC1; type: biochemical
[3] = target: HDAC2 (Homo sapiens, UniProt Q92769); experiment: HDAC enzyme-based fluorogenic assay, HDAC2; type: biochemical
[4] = Plasma protein binding by equilibrium dialysis; type: in vitro ADME; settings: rat
[5] = target: T1, HsEH (Homo sapiens, UniProt P34913); experiment: fluorescent-based sEH assay with PHOME as substrate; type: biochemical
T1 sequence (P34913 1-555): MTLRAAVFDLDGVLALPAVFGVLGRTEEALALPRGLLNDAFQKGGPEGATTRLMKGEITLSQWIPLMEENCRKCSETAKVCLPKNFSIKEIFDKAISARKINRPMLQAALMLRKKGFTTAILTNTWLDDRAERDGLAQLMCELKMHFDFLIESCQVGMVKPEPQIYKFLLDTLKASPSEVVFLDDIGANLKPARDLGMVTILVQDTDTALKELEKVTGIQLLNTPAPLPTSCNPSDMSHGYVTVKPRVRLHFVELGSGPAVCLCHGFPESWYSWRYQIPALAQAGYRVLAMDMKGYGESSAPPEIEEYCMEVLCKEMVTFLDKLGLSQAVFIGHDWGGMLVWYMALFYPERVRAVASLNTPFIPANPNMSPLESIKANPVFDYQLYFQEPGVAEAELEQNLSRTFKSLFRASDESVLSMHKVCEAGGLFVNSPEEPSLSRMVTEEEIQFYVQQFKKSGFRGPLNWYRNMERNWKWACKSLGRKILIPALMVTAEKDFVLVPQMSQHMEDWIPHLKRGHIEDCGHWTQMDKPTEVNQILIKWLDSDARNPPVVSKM

[6] = target: T2, HDAC11 (Homo sapiens, UniProt Q96DB2); experiment: HDAC enzyme-based fluorogenic assay, HDAC11; type: biochemical
T2 sequence (Q96DB2 1-347): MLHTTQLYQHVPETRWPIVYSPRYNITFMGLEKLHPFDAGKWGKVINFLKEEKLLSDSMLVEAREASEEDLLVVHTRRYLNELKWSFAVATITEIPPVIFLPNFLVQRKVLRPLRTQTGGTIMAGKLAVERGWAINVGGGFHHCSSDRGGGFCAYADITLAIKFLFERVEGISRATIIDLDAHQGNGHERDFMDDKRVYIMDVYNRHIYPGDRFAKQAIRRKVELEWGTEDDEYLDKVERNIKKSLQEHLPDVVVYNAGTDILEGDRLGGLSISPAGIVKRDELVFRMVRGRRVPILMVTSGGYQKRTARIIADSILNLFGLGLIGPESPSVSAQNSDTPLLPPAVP

[7] = Acute toxicity test; settings: in vivo
[8] = system: xylene-induced ear swelling inflammation in mice; experiment: Xylene-induced ear swelling inflammation model in mice; type: in vivo, Kunming mice; settings: Table 7 dose study
[9] = system: formalin-induced inflammatory pain in mice; experiment: Formalin-induced inflammatory pain model in mice; type: in vivo, Kunming mice; settings: for pain response, second phasic response: dose study, Figure 15, compared with the model group
[10] = system: acetylation of α-tubulin and histone H3 in THP-1 cell; experiment: Western blot of acetylation of α-tubulin and histone H3 in THP-1 cell; type: cell-based; settings: 1 μM and 2 μM, 24 h
[11] = system: LPS-induced RAW264.7 cells; experiment: Inflammatory factors and iNOS in LPS-induced RAW264.7 cells; type: cell-based

Chain of HDAC2 (Q92769 whole entry): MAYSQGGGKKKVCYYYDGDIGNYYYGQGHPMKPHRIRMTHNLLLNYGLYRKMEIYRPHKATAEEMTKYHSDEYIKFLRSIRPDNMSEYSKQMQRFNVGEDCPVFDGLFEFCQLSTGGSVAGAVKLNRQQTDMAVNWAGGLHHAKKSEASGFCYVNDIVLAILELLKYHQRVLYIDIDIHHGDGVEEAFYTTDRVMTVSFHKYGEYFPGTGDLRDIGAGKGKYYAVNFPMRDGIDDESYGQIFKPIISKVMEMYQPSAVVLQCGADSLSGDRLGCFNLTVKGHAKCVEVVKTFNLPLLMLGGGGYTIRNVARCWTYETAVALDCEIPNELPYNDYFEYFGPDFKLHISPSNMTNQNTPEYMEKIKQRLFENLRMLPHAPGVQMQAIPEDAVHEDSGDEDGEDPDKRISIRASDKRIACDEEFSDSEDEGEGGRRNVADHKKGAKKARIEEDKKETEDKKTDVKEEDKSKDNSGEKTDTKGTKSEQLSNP
Chain of HDAC3 (O15379 whole entry): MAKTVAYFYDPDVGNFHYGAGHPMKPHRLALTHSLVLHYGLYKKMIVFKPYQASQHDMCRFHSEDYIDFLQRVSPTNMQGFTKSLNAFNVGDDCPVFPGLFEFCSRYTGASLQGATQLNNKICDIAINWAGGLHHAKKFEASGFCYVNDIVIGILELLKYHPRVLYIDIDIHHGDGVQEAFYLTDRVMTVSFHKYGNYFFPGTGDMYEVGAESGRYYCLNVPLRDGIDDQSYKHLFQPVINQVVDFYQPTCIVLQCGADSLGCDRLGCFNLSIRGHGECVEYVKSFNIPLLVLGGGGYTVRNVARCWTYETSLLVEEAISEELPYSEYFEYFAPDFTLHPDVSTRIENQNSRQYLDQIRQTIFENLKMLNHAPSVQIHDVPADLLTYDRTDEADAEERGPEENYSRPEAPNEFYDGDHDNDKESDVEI
Chain of HDAC3 (Q9Y618 395-489 partner limits assumed): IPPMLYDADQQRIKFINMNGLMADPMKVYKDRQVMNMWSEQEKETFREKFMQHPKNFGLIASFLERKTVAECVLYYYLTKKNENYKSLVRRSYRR
Chain of HDAC1 (Q13547 whole entry): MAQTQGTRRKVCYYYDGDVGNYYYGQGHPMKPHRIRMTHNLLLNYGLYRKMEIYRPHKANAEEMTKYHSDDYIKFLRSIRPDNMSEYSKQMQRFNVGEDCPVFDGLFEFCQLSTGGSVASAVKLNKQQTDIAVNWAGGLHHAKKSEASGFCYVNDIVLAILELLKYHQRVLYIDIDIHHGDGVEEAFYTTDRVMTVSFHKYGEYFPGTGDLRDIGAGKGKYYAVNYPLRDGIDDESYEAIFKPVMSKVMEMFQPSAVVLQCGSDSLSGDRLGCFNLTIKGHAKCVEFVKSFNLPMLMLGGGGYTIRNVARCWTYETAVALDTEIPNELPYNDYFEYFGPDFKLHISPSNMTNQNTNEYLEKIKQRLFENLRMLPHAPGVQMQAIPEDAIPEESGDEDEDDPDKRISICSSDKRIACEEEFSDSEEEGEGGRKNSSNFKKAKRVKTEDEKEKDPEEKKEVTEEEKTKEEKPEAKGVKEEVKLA

## O=C(CCCCCCNC(=O)[C@H]1CCCN(C(=O)c2ccc(NC(=O)Nc3cc(F)cc(F)c3)c(F)c2)C1)NO [Compound 28j, (S)-1-(4-(3-(3,5-Difluorophenyl)ureido)-3-fluorobenzoyl)-N-(7-(hydroxyamino)-7-oxoheptyl)piperidine-3-carboxamide]
[1]
  IC50: 2620 nM
[2]
  IC50: 1030 nM
[3]
  IC50: 1070 nM
[4]
  fraction unbound: 0.119
[5]
  IC50: 3.6 nM
[6]
  IC50: 1050 nM

## O=C(CCCCCCNC(=O)[C@H]1CCCN(C(=O)c2ccc(NC(=O)Nc3ccc(Cl)c(F)c3)c(F)c2)C1)NO [Compound 28g, (S)-1-(4-(3-(4-Chloro-3-fluorophenyl)ureido)-3-fluorobenzoyl)-N-(7-(hydroxyamino)-7-oxoheptyl)piperidine-3-carboxamide]
[7]
  safety in acute toxicity test: good safety
[1]
  IC50: 1280 nM
[8]; 10 mg/kg by gavage for 7 days
  Inhibition rate: 44.39%
  Swelling degree: 8.7 ± 1.7 mg
  Swelling rate: 69.39%
[8]; 30 mg/kg by gavage for 7 days
  Inhibition rate: 67.17%
  Swelling degree: 5.1 ± 0.9 mg
  Swelling rate: 39.50%
[2]
  IC50: 1150 nM
[9]; 10 mg/kg
  pain response, second phasic response: reduced the pain response
[9]; 30 mg/kg (high-dose)
  pain response, second phasic response: significantly reduced the pain response
[9]; mice, 30 mg/kg intraperitoneally, Figure 13
  pain response time, first phasic response: did not significantly reduce the pain response time
[10]
  acetylation of histone H3: without affecting histone H3
  acetylation of α-tubulin: induced an increase in acetylation of α-tubulin
[3]
  IC50: 492 nM
[4]
  fraction unbound: 0.113
[5]
  IC50: 0.9 nM
[11]; LPS-induced RAW264.7 cells, western blot
  levels of gene expression of iNOS: suppressed
[11]; RAW264.7 cells preconditioned 1–100 µg/mL for 12 h, then LPS 1 µg/mL 12 h, ELISA
  levels of IL-6, IL-1β, TNF-α and NO: significantly reversed this change
[6]
  IC50: 464 nM
